Measurements published in paper PMC2628638, “Catalytic inhibition of topoisomerase II by a novel rationally designed ATP-competitive purine analogue” (BMC Chemical Biology, 2009).

Experiments:
Assay type in all cases: cell-based
HeLa T-Rex cells = assay: Gamma-H2AX In-Cell Western assay (doxorubicin-induced DNA damage); conditions: 30 minutes pretreatment, then 1 μM doxorubicin for 2 hours; read-out: IC50, suppression of doxorubicin-induced γH2AX signal
Experimental: In-Cell Western analysis was carried out as follows. HeLa T-Rex cells were seeded at the cell density of 15 × 10^3 cells per well in black 96-well plates (Greiner Bio-one Vacuette, St Gallen, Switzerland). The day post-seeding, cells were pretreated with increasing concentrations of either ICRF-193, QAP 1 or vehicle (DMSO) for 30 minutes followed by a 2 hours treatment with 1 μM of doxorubicin, or were only treated with the same concentrations of ICRF-193, QAP 1 or vehicle (DMSO) for 2 hours. Treatments were done in triplicate. […] Finally, cells were washed 4 times with 50 μl per well of PBS containing 0.1% Tween-20 for 3 minutes, liquid was removed and plates were kept at 4°C until reading. γH2AX signals were read using the LI-COR Odyssey Infrared Imager with the Odyssey v1.1 software using the 800 nm channel. Blank values correspond to non-specific γH2AX signal detected in wells without primary antibody staining. […] The resulting values for each sample were normalized to the DNA quantity by measuring the corresponding TO-PRO-3 iodide signals. The TO-PRO-3 iodine signals were detected by using the 700 nm channel. The percentage of γH2AX signal was determined for each concentration of ICRF193 and QAP 1 with or without doxorubicin treatment by setting the value for the treatment with vehicle and 1 μM doxorubicin to 100%. […]

HL-60 cells [1] = assay: Gamma-H2AX Western blot (doxorubicin-induced DNA damage); conditions: both drugs 5 μM, 30 minutes pretreatment, doxorubicin 2 hours
Experimental: Histone extracts of HL-60 or HeLa T-Rex cells for Western blot analysis were prepared as follows: Following treatments, medium was removed and cells were collected/washed with PBS. Cells were centrifuged for 5 minutes at 1500 rpm and 4°C and the cell pellet was resuspended in 300 μl of ice-cold hypotonic buffer (see above). Cells were transferred in a 1.5 ml Eppendorf tube and incubated for 15 minutes on ice. Thereafter, NP-40 was added to the cells to a final concentration of 0.6% (v/v) and cells were disrupted by pumping 10–15 times through a 1 ml syringe connected to a 23-gauge needle. The extract was centrifuged for 10 minutes at 8000 rpm and 4°C. The supernatant (cytoplasmic fraction) was removed and the nuclear pellet was washed once with 500 μl of ice-cold hypotonic buffer for 4 minutes at 8000 rpm. Nuclear proteins were extracted by addition of 22 μl sample buffer and boiling for 3 minutes. Samples were resolved by 15% SDS-PAGE following transfer to PVDF membrane. After blocking, membranes were incubated either with anti-γH2AX (clone JBW301, 05–636, Upstate, Charlottesville, VA, diluted 1:1000 in PBS containing 0.1% Tween 20 and 5% milk) or histone H3 (catalog number 9715, Cell Signaling Technologies Inc., Beverly, MA, diluted 1:1000 in TBS containing 0.1% Tween 20 and 5% milk) antibodies overnight at 4°C.

HL-60 cells [2] = assay: Chromosome segregation assay (chromosome spreads)
Experimental: HL-60 cells were treated overnight for 16 hours with 2 μg/ml aphidicolin (Sigma-Aldrich corporation, St. Louis, MO) and released by washing twice PBS and resuspending into fresh medium. After 6 hours release the cells were treated with 1 mM caffeine (Lancaster Synthesis, Heysham, Lancashire, UK) and with catalytic topoisomerase II inhibitor or vehicle for 2 hours. Cells were washed once with PBS and incubated with 56 mM KCl hypotonic solution for 30 minutes. Cells were pelleted and carefully resuspended in Carnoy's fixative. Cells were pelleted as above, supernatant was removed and cells were resuspended again in 2 ml fixative. Chromosome spreads were prepared by dropping 50 μl cell suspension onto microscopy slides. The slides were allowed to dry and then stained for 10 seconds in Hoechst 33342 dye (Molecular Probes, Eugene, Oregon, prepared 1:1000 in PBS from 10 mg/ml stock). After drying, mounting media (Vectashield®, Vector Laboratories, Burlingame, CA) and a cover slip were added. Samples were observed using an immersion oil lens (100 ×, Nikon, Plan Apo VC) by fluorescence microscopy (Nikon Eclipse, E600) in the DAPI channel. Images were acquired using analySIS® software (Soft Imaging System GmbH, Münster, Germany). Representative images were converted to grayscale, inverted and contrast adjusted with Adobe Photoshop. Mitotic cells were categorized as described.

HL-60 cells [3] = assay: Proliferation assay over 72 hours; conditions: read-out: half-maximal growth inhibitory concentration (GI50)
[4] = test system: HCC1937 BRCA1 mutant and HCC1937 BRCA1 reconstituted cells; assay: Clonogenic growth assay (WST-1, colony counting); conditions: continuous treatment for 9 days, WST-1 and colony numbers
Experimental: HCC1937 BRCA1 mutant and HCC1937 BRCA1 reconstituted breast ductal carcinoma cells were cultured in RPMI-1640 medium supplemented with 10% fetal calf serum, 2 mM L-glutamine, 1 mM sodium pyruvate, 4.5 g/l glucose and 1% (v/v) penicillin/streptomycin. Status of BRCA1 was corroborated by immunoprecipitation using 50 μg nuclear extracts and 1 μg mouse monoclonal antibody MS110 (ab16780, Abcam Inc., Cambridge, MA), which is directed towards the amino-terminus of the protein. Blots were probed with BRCA1 carboxy-terminal specific mouse monoclonal antibody D9 (sc-6954, Santa Cruz Biotechnologies, Santa Cruz, CA) and, following stripping, re-probed with antibody MS110. For assays, 5000 cells in 3 ml medium were seeded per well of 6 well plates in duplicates. The day after, vehicle (DMSO) or compounds were added. After one week medium was exchanged and vehicle or compounds were re-added for an additional two days. To assess proliferation the medium in each well was replaced with 1 ml medium containing 100 μl WST-1 reagent and incubation for 20 minutes at 37°C. Of each sample 110 μl supernatant were transferred into a 96 well plate and the OD was read at 450 nm (filter at 630 nm) on a SpectraMax Plus microtiter plate reader using SoftMax Pro software (Molecular Devices). For background correction, the blank value consisted of 100 μl medium containing 10 μl WST-1. Thereafter, colonies were stained by removing medium, washing cells once with PBS and incubation with 1 ml crystal violet solution for 30 minutes at room temperature. Cells were washed twice with PBS and colonies were counted using an Artec Counter (Model 880, Artec, Dyntatech Laboratories Inc.) with diameter cut-off set to 0.2 mm. Data were expressed as growth or colony numbers relative to vehicle control treatments (100%).

ICRF-193 [reference compound]
IC50 (HeLa T-Rex cells): ~200 nM
effect of pretreatment on doxorubicin-induced γH2AX (Western blot) (HL-60 cells [1]): suppressed
chromosome segregation at mitosis (HL-60 cells [2]; 400 nM with 1 mM caffeine for 2 hours after 6 hours release): anaphases looked abnormal
chromosome segregation at mitosis (HL-60 cells [2]; 1 μM with caffeine for 2 hours after 6 hours release from aphidicolin): no normal anaphases or telophases could be observed
GI50 (HL-60 cells [3]): 250 nM
sensitivity of BRCA1 mutant versus BRCA1 reconstituted HCC1937 cells [4]: somewhat more sensitive
